For 21 molecules, Emax and EC50 results are on record in patent US8846951B2 (AbbVie Inc., priority 2009, dated 2014).

The target of one experiment is T1, 5HT2C receptors (Homo sapiens, UniProt P28335).
T1 sequence (P28335 33-458): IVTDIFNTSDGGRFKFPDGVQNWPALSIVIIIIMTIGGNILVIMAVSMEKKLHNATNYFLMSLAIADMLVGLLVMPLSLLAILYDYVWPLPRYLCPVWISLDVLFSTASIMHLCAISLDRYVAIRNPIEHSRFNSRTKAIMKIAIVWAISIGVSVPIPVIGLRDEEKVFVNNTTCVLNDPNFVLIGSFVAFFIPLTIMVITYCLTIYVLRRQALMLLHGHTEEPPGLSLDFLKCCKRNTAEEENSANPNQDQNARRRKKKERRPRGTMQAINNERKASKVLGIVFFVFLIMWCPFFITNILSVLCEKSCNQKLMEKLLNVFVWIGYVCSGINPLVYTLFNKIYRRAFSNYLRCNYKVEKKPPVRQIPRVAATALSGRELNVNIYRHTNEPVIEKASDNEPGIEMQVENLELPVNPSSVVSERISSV
Kind of experiment: Human 5-HT2C functional high throughput screening assay in CHO-K1 cells (calcium flux). It is filed as cell-based. Also noted: expressed in transfected cells; host or cells: CHO-K1 cells. Conditions: for Emax: CHO-K1, 5-HT2C, maximum functional response as percentage relative to the effect of serotonin; for EC50: CHO-K1 cells, calcium flux; call rule not given here. The essentials: (§1)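 Calcium flux in CHO-K1 cells overexpressing each receptor, using Ca4 dye with probenecid and FLIPR detection. Top concentration was 10 μM, diluted 1:10 across 6 points, and efficacy was scaled to serotonin.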
(In general: A change in cytosolic calcium serves as a functional read-out for many receptors and channels.)

A further experiment concerns the target T2, 5HT2B receptors (Homo sapiens, UniProt P41595).
T2 construct: expressed in transfected cells; host or cells: CHO-K1 cells
Briefly: Human 5-HT2B functional high throughput screening assay in CHO-K1 cells (calcium flux). It is filed as cell-based. Particulars: for EC50: CHO-K1 cells, calcium flux. The essentials: as §1

Setting [1] is: 5-HT2B agonist activity, read-out: EC50.
Where [2] appears, read: 5-HT2B, maximum functional response as percentage relative to the effect of serotonin.
The mark [3] stands for this setting: 5-HT2C agonist activity, read-out: EC50.
Setting [4] is: CHO-K1, 5-HT2B, maximum functional response as percentage relative to the effect of serotonin, read-out: Emax.

Where two headings read alike, the source gives them in different places.

T2 sequence (P41595 whole entry): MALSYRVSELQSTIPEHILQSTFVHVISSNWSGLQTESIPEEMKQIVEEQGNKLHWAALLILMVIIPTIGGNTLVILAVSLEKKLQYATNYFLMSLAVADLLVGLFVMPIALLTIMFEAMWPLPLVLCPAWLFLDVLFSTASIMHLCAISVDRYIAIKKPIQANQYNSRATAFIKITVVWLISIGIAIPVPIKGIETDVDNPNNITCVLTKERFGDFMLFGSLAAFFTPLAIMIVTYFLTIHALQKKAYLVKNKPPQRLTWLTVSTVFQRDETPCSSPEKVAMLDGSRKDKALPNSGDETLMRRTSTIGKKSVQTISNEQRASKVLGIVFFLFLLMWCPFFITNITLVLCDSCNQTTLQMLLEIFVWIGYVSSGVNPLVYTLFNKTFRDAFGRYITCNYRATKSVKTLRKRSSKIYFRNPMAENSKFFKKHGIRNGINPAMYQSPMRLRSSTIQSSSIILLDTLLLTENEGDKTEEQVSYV

What is called Emax is the size of the effect at its maximum, as opposed to the concentration needed. In general, EC50 refers to the concentration at which the effect is half-maximal. Consider `CN1C[C@H]2CNC(=O)c3cc(-c4cccc(S(C)(=O)=O)c4)ccc3[C@@H]2C1` (relative stereo) [Example 84, Trans-2-methyl-8-(3-(methylsulfonyl)phenyl)-1,2,3,3a,4,5-hexahydrobenzo[e]pyrrolo[3,4-c]azepin-6(10bH)-one], for which the Emax on 5HT2C receptors (read-out: Emax) is above 120%; on 5HT2B receptors (setting [2]), “inactive”. In addition, the EC50 at 5HT2B receptors (setting [1]) is above 10000 nM.

With `Fc1cccc2c1[C@H]1CNC[C@@H]1CCO2` (relative stereo) [Example 287, Trans-10-fluoro-2,3,3a,4,5,10b-hexahydro-1H-[1]benzoxepino[4,5-c]pyrrole], the values for the maximum response (Emax) on 5HT2C receptors and on 5HT2B receptors (CHO-K1) were 95% and 40%, respectively. For the same molecule, the 50% effective concentration (EC50) at 5HT2C receptors (EC50, 5-HT2C agonist activity) stood at 50 nM; on 5HT2B receptors (EC50, 5-HT2B agonist activity), 300 nM.

With `O=C1NC[C@@H]2CNC[C@H]2c2ccc(OCc3ccccc3F)cc21` (relative stereo) [Example 147, Trans-8-(2-fluorobenzyloxy)-1,2,3,3a,4,5-hexahydrobenzo[e]pyrrolo[3,4-c]azepin-6(10bH)-one], the maximum response (Emax) was above 120% at 5HT2C receptors and “inactive” at 5HT2B receptors (setting [2]). On 5HT2B receptors (EC50, 5-HT2B agonist activity), the EC50 was above 10000 nM.

Take `CN1C[C@H]2CNC(=O)c3cc(-c4cccc(CCO)c4)ccc3[C@@H]2C1` (relative stereo) [Example 253, Trans-8-(3-(2-hydroxyethyl)phenyl)-2-methyl-1,2,3,3a,4,5-hexahydrobenzo[c]pyrrolo[3,4-e]azepin-6(10bH)-one]: the values for the concentration giving a half-maximal response (EC50) on 5HT2C receptors (setting [3]) and at 5HT2B receptors (setting [1]) were 7 nM and above 10000 nM, respectively. For the same molecule, the maximum response (Emax) was above 120% on 5HT2C receptors (read-out: Emax) and “inactive” on 5HT2B receptors (setting [2]).

In the case of `CN1C[C@H]2CNC(=O)c3cc(N4CCCCC4)ccc3[C@@H]2C1` (relative stereo) [Example 298, Trans-2-methyl-8-(piperidin-1-yl)-2,3,3a,4,5,10b-hexahydropyrrolo[3,4-d][2]benzazepin-6(1H)-one], the concentration giving a half-maximal response (EC50) was 400 nM at 5HT2C receptors (setting [3]) and above 10000 nM on 5HT2B receptors (setting [1]). Besides, the maximal response (Emax) on 5HT2C receptors (read-out: Emax) was 80%; on 5HT2B receptors (setting [2]) it was “inactive”.

Regarding `O=S(=O)(c1ccc(OC(F)F)cc1)N1Cc2cccnc2[C@@H]2CNC[C@H]2C1` (relative stereo) [Example 335, Trans-6-{[4-(difluoromethoxy)phenyl]sulfonyl}-5,6,7,7a,8,9,10,10a-octahydropyrido[3,2-e]pyrrolo[3,4-e]azepine], the EC50 on 5HT2C receptors (setting [3]) worked out at 20 nM; on 5HT2B receptors (setting [1]) it was 900 nM. In addition, the Emax on 5HT2C receptors (read-out: Emax) was 85%; on 5HT2B receptors (setting [4]), 25%.

Turning to `CN1C[C@H]2CNC(=O)c3cc(-c4cccc(F)c4)ccc3[C@@H]2C1` (relative stereo) [Example 76, Trans-8-(3-fluorophenyl)-2-methyl-1,2,3,3a,4,5-hexahydrobenzo[e]pyrrolo[3,4-c]azepin-6(10bH)-one], the half-maximal effective concentration (EC50) on 5HT2C receptors (setting [3]) is 11 nM; at 5HT2B receptors (setting [1]) it was above 10000 nM. For the same molecule, the maximal response (Emax) at 5HT2C receptors (read-out: Emax) was above 120%; at 5HT2B receptors (setting [2]) it was “inactive”.

Consider `c1ccc(CN2CC[C@@H]3CNC[C@H]3c3ccccc32)cc1` (relative stereo) [Example 329, Trans-6-benzyl-1,2,3,3a,4,5,6,10b-octahydropyrrolo[3,4-d][1]benzazepine], for which the results for the EC50 on 5HT2C receptors (setting [3]) and at 5HT2B receptors (setting [1]) were 1000 nM and 2000 nM, respectively. Also, the maximum response (Emax) was 70% at 5HT2C receptors and 15% at 5HT2B receptors (CHO-K1).

As to `COc1cc(C)ccc1-c1ccc2c(c1)C(=O)NC[C@@H]1CN(C)C[C@@H]21` (relative stereo) [Example 302, Trans-8-(2-methoxy-4-methylphenyl)-2-methyl-2,3,3a,4,5,10b-hexahydropyrrolo[3,4-d][2]benzazepin-6(1H)-one], the EC50 on 5HT2C receptors (setting [3]) is 70 nM; at 5HT2B receptors (setting [1]), above 10000 nM. For the same molecule, the results for the Emax on 5HT2C receptors (read-out: Emax) and at 5HT2B receptors (setting [2]) were 95% and “inactive”, respectively.

Turning to `O=C1NC[C@@H]2CN(Cc3ccccc3)C[C@H]2c2cccnc21` (relative stereo) [Example 154, Trans-2-benzyl-1,2,3,3a,4,5-hexahydropyrido[3,2-e]pyrrolo[3,4-c]azepin-6(10bH)-one], the results for the 50% effective concentration (EC50) at 5HT2C receptors (setting [3]) and at 5HT2B receptors (setting [1]) were 2000 nM and above 10000 nM, respectively. Also, the values for the Emax on 5HT2C receptors and on 5HT2B receptors (setting [2]) were 90% and “inactive”, respectively.

As to `CN1C[C@@H]2CCOc3ccc(Cl)cc3[C@H]2C1` [Example 234, (3aR,10bS)-9-Chloro-2-methyl-2,3,3a,4,5,10b-hexahydro-1H-[1]benzoxepino[4,5-c]pyrrole], the Emax was above 120% on 5HT2C receptors and 70% on 5HT2B receptors (CHO-K1). In addition, the EC50 is 10 nM on 5HT2C receptors (EC50, 5-HT2C agonist activity) and 10 nM at 5HT2B receptors (EC50, 5-HT2B agonist activity).

For the molecule `O=C1NC[C@@H]2CNC[C@H]2c2ccc(-c3ccc(F)cc3)cc21` [Example 221, (3aS,10bR)-8-(4-Fluorophenyl)-1,2,3,3a,4,5-hexahydrobenzo[e]pyrrolo[3,4-c]azepin-6(10bH)-one], the Emax on 5HT2C receptors (read-out: Emax) was above 120%; at 5HT2B receptors (setting [2]) it was “inactive”. The EC50 on 5HT2B receptors (setting [1]) is above 10000 nM.

For `COc1ccc(-c2ccc3c(c2)C(=O)NC[C@@H]2CN(C)C[C@@H]32)cc1` (relative stereo) [Example 131, Trans-8-(4-methoxyphenyl)-2-methyl-1,2,3,3a,4,5-hexahydrobenzo[e]pyrrolo[3,4-c]azepin-6(10bH)-one], the Emax on 5HT2C receptors (read-out: Emax) is above 120%; at 5HT2B receptors (setting [2]), “inactive”. Further, the 50% effective concentration (EC50) at 5HT2B receptors (setting [1]) is above 10000 nM.

In the case of `c1ccc(-c2cccc3c2OCC[C@H]2CNC[C@H]32)cc1` (relative stereo) [Example 397, Trans-7-phenyl-2,3,3a,4,5,10b-hexahydro-1H-[1]benzoxepino[4,5-c]pyrrole], the EC50 at 5HT2C receptors (setting [3]) was 5 nM; at 5HT2B receptors (setting [1]), above 10000 nM. Besides, the figures for the Emax at 5HT2C receptors (read-out: Emax) and at 5HT2B receptors (setting [2]) were 95% and “inactive”, respectively.

For `O=S(=O)(c1ccccc1C(F)(F)F)N1Cc2cccnc2[C@@H]2CNC[C@H]2C1` (relative stereo) [Example 365, Trans-6-{[2-(trifluoromethyl)phenyl]sulfonyl}-5,6,7,7a,8,9,10,10a-octahydropyrido[3,2-c]pyrrolo[3,4-e]azepine], the results for the concentration giving a half-maximal response (EC50) on 5HT2C receptors (setting [3]) and at 5HT2B receptors (setting [1]) were 500 nM and 800 nM, respectively. The Emax is 80% on 5HT2C receptors (read-out: Emax) and 30% on 5HT2B receptors (setting [4]).

As to `O=C1NC[C@@H]2CNC[C@H]2c2ccc(C3=CCOCC3)cc21` (relative stereo) [Example 241, Trans-8-(3,6-dihydro-2H-pyran-4-yl)-1,2,3,3a,4,5-hexahydrobenzo[c]pyrrolo[3,4-e]azepin-6(10bH)-one], the figures for the EC50 at 5HT2C receptors (setting [3]) and on 5HT2B receptors (setting [1]) were 7 nM and above 10000 nM, respectively. Moreover, the Emax at 5HT2C receptors (read-out: Emax) is above 120%; on 5HT2B receptors (setting [2]), “inactive”.

Turning to `CN1C[C@H]2CNC(=O)c3c(F)cccc3[C@@H]2C1` (relative stereo) [Example 92, Trans-7-fluoro-2-methyl-1,2,3,3a,4,5-hexahydrobenzo[e]pyrrolo[3,4-c]azepin-6(10bH)-one], the figures for the Emax at 5HT2C receptors and on 5HT2B receptors (CHO-K1) were above 120% and 34%, respectively. For the same molecule, the EC50 was found to be 56 nM on 5HT2C receptors (EC50, 5-HT2C agonist activity) and 1350 nM on 5HT2B receptors (EC50, 5-HT2B agonist activity).

For `CN1C[C@H]2CNC(=O)c3c(-c4ccccc4)cccc3[C@@H]2C1` (relative stereo) [Example 114, Trans-2-methyl-7-phenyl-1,2,3,3a,4,5-hexahydrobenzo[c]pyrrolo[3,4-e]azepin-6(10bH)-one], the EC50 at 5HT2C receptors (setting [3]) is 5000 nM; on 5HT2B receptors (setting [1]), above 10000 nM. Also, the figures for the Emax at 5HT2C receptors (read-out: Emax) and at 5HT2B receptors (setting [2]) were 80% and “inactive”, respectively.

Consider `c1ccc(CN2C[C@H]3CCNc4ccccc4[C@@H]3C2)cc1` (relative stereo) [Example 254, Trans-2-benzyl-1,2,3,3a,4,5,6,10b-octahydrobenzo[b]pyrrolo[3,4-d]azepine], for which the EC50 turned out to be 1000 nM on 5HT2C receptors (setting [3]) and 800 nM on 5HT2B receptors (setting [1]). For the same molecule, the Emax came out at 105% on 5HT2C receptors (read-out: Emax) and 30% on 5HT2B receptors (setting [4]).

With `O=C1NC[C@@H]2CNC[C@H]2c2ccc(-c3ccsc3Cl)cc21` (relative stereo) [Example 385, Trans-8-(2-chloro-3-thienyl)-2,3,3a,4,5,10b-hexahydropyrrolo[3,4-d][2]benzazepin-6(1H)-one], the EC50 at 5HT2C receptors (setting [3]) is 0.3 nM; at 5HT2B receptors (setting [1]), above 10000 nM. In addition, the maximal response (Emax) at 5HT2C receptors (read-out: Emax) is 95%; at 5HT2B receptors (setting [2]), “inactive”.

Turning to `C[C@@H](Oc1ccc2c(c1)C(=O)NC[C@@H]1CNC[C@@H]21)c1ccccc1` (mixture of isomers) [Example 150, Trans-8-((R)-1-phenylethoxy)-1,2,3,3a,4,5-hexahydrobenzo[e]pyrrolo[3,4-c]azepin-6(10bH)-one], the Emax at 5HT2C receptors is above 120%; on 5HT2B receptors (setting [2]), “inactive”. Moreover, the EC50 on 5HT2C receptors (EC50, 5-HT2C agonist activity) was 50 nM; on 5HT2B receptors (EC50, 5-HT2B agonist activity), above 10000 nM.
